Consider three molecules from patent US20240351999A1, “PYRROLYLACYLPIPERIDYLAMINE COMPOUND AND USE THEREOF” (INSTITUTE OF MATERIA MEDICA ,CHINESE ACADEMY OF MEDICAL …, priority 2021, published 2024).

Data set [1] concerns Acinetobacter baumannii ATCC 19606. Nature of the data set: In vitro antibacterial activity (MIC), microbroth dilution. The conditions noted are these: ATCC19606, 37° C., 18 h, read-out: MIC Acinetobacter baumannii ATCC 19606. The format is cell-based. For orientation: In broth dilution the organism is exposed to a series of concentrations in liquid medium.
In data set [2] the test system is Pseudomonas aeruginosa ATCC 27853. The data set is described as above. Type of data set: cell-based. Particulars: ATCC27853, 37° C., 18 h, read-out: MIC Pseudomonas aeruginosa ATCC 27853.
For data set [3], the system named is Escherichia coli ATCC25922. The conditions noted are these: prior art value; cited from earlier work.
Data set [4] relates to Escherichia coli ATCC 25922. Nature of the data set: In vitro antibacterial activity (MIC), microbroth dilution. Type of data set: cell-based. The conditions noted are these: ATCC25922, 37° C., 18 h, read-out: MIC Escherichia coli ATCC 25922.
Data set [5] has as its system Staphylococcus aureus ATCC 29213. The data set is described as above. The format is cell-based. The conditions noted are these: ATCC29213, 37° C., 18 h.
For data set [6], the system named is Escherichia coli ATCC 35218. The data set is described as above. Type of data set: cell-based. The conditions noted are these: ATCC35218, 37° C., 18 h, read-out: MIC Escherichia coli ATCC 35218.
Data set [7] has as its system Escherichia coli ECO+ 15-1. The description is as above. The format is cell-based. Particulars: 37° C., 18 h, read-out: MIC Escherichia coli ECO+ 15-1.
Data set [8] deals with Klebsiella pneumoniae KPN-15-1. The data set is described as above. The format is cell-based. The conditions noted are these: KPN151, 37° C., 18 h, read-out: MIC Klebsiella pneumoniae KPN-15-1.
In data set [9] the test system is Clostridium difficile ATCC 9689. Described as above. The conditions noted are these: for MIC: Clostridioides difficile, ATCC9689, read-out: MIC Clostridium difficile ATCC 9689. The format is cell-based.
The subject of data set [10] is Staphylococcus aureus (MRSA, ATCC 43300). Put plainly: Antibacterial activity in mice, sepsis model. The format is in vivo, ICR mice. Particulars: MRSA ATCC 43300 sepsis model; for ED50: Staphylococcus aureus, po, intragastric administration at lower dose. How it is done:
(§1) Experimental animals: Beijing Vital River Laboratory Animal Technology Co., Ltd., ICR mice, with a uniform body weight of 20-22 g, and half male and half female.
Model: Sepsis model infected by Staphylococcus aureus (MRSA, ATCC 43300)
Modeling method: mice were infected with […] (diluted with a 5% sterile yeast solution) Staphylococcus aureus (MRSA, ATCC 43300) such that sepsis models of mice were formed (0.5 mL of a bacterial solution was injected intraperitoneally into each mouse).
Experimental scheme: a compound 1 and a positive drug were first dissolved in DMSO, and then diluted with other solvents, wherein a solvent ratio was saline:Tween 80:DMSO=9:0.5:0.5.

The subject of data set [11] is Staphylococcus aureus MRSA 15-1. Nature of the data set: In vitro antibacterial activity (MIC), microbroth dilution. Type of data set: cell-based. The conditions noted are these: 37° C., 18 h.
For data set [12], the system named is Enterococcus faecalis ATCC 51575. The data set is described as above. Particulars: ATCC51575, 37° C., 18 h. Type of data set: cell-based.
The nature of data set [13]: Acute toxicity test in mice. The format is in vivo.
Source text: as §1
In a tail vein administration group, there were 10 mice in each group, with half male and half female. In an intragastric administration group and an intraperitoneal administration group, there were four mice in each group, with half male and half female.

Data set [14] concerns Enterococcus faecium EFM 19-1. Put plainly: In vitro antibacterial activity (MIC), microbroth dilution. Type of data set: cell-based. The conditions noted are these: EFM191, 37° C., 18 h.
Data set [15] concerns Staphylococcus epidermidis MRSE 15-1. Described as above. The conditions noted are these: 37° C., 18 h. Type of data set: cell-based.
For data set [16], the system named is Staphylococcus aureus ATCC 43300 (MRSA). The description is as above. The format is cell-based. Particulars: 18 h, read-out: MIC Staphylococcus aureus ATCC 43300 (MRSA).
The test system of data set [17] is Mycobacterium tuberculosis. Nature of the data set: Activity against Mycobacterium tuberculosis (MIC). Particulars: read-out: Inhibitory activity (MIC) against Mycobacterium tuberculosis. The format is cell-based.
Data set [18] concerns Staphylococcus epidermidis ATCC 12228. Put plainly: In vitro antibacterial activity (MIC), microbroth dilution. Type of data set: cell-based. The conditions noted are these: ATCC12228, 37° C., 18 h.
Data set [19] in a line: Pharmacokinetic test in mice. Type of data set: in vivo. The conditions noted are these: both sexes, ICR, mouse, po, 150 mg/kg intragastric administration; for half-life: read-out: t½z (half-life period) (converted). How it is done: as §1
Experimental scheme: a compound 1 was administered at a dose of 150 mg/kg (Solvents were as follows: saline:Tween 80:DMSO=9:0.5:0.5) by intragastric administration, and samples were taken by orbital blood sampling or a mode of sampling blood by enucleating eyeballs at 10 min, 20 min, 30 min, 1 h, 3 h, 5 h, 8 h, 24 h, 36 h, and 48 h after administration, plasma concentrations were determined by UPLC, a drug concentration-time curve was plotted, and key pharmacokinetic parameters were calculated.

The subject of data set [20] is Staphylococcus aureus ATCC 29213. Nature of the data set: In vitro induced drug resistance, 20 generations at sub-MIC. The format is cell-based. Particulars: ATCC29213, read-out: MIC value after passage for 20 generations. How it is done: Test method: MIC values of a compound 1 and a control compound DS2969 against Staphylococcus aureus ATCC 29213 were determined by using a microbroth dilution method recommended by operating procedures for antibacterial susceptibility testing of the Clinical and Laboratory Standards Institute (CLSI).
After testing the MIC values, sub-MIC concentrations (1/2 MIC) of bacteria were diluted, and the concentration of the obtained bacterial solution was adjusted to 105 CFU/mL for a next round of MIC value testing. After 24 hours of incubation, bacterial suspensions were prepared by using bacterial suspensions at sub-MIC concentrations of drugs (1/2 MIC), and another MIC testing was performed. This process was repeated for 20 times, and the MIC value for each test was recorded.
The MIC values of the compound 1 and DS2969 inducing Staphylococcus aureus ATCC29213 for 20 generations were recorded, with the number of generations of bacteria induced as an abscissa and the MIC values as an ordinate (as shown in FIG. 1).

Data set [21] deals with Staphylococcus aureus ATCC 25923. Put plainly: In vitro antibacterial activity (MIC), microbroth dilution. Type of data set: cell-based. Particulars: ATCC25923, 37° C., 18 h.
The subject of data set [22] is Staphylococcus aureus ATCC 29213. The conditions noted are these: prior art value; cited from earlier work.

The structures appear in SMILES notation. ≈ marks a conversion by molar mass, not a printed value. Like-named read-outs stand apart in the source and are kept apart here.

On to `COC[C@H](C)NC(=O)c1nc(N2CC[C@@H](NC(=O)c3[nH]c(C)c(Cl)c3Cl)[C@@H](OC)C2)sc1C(=O)O` [AZD5099], for which the MIC is more than 64 µg/mL in data set [1]; more than 64 µg/mL in data set [2]; 32 µg/mL (≈ 58.3 µM) in data set [4]; 0.03 µg/mL (≈ 0.0547 µM) in [5]; 32 µg/mL (≈ 58.3 µM) in data set [6]; more than 64 µg/mL in [7]. Also, in data set [8], the MIC is more than 64 µg/mL. In addition, in [3], the “MIC Escherichia coli ATCC25922 (background)” value is 32 µg/mL (≈ 58.3 µM).
The ED50 is the dose at which the effect has come halfway, by size or by number of responders. The bioavailability is dose-corrected exposure relative to a reference, in per cent. Usually half-life stands for the time in which the quantity being followed falls by half. One may read the AUC(0-inf) as total exposure, with the tail of the curve extrapolated. High values mean more exposure, low ones less exposure. For orientation: Cmax means the peak of the concentration-time curve. For orientation: Tmax means the time from dosing to the highest level. On to `CO[C@H]1CN(c2ccc(C(C)(C)O)nn2)CC[C@H]1NC(=O)c1[nH]c(C)c(Cl)c1Cl` [Compound 1, 3,4-dichloro-N-{(3S,4R)-1-[6-(2-hydroxypropan-2-yl)pyridazin-3-yl]-3-methoxypiperidin-4-yl}-5-methyl-IH-pyrrole-2-carboxamide], for which the MIC in data set [9] is 0.25 µg/mL (≈ 0.565 µM); in data set [1], 8 µg/mL (≈ 18.1 µM); in data set [11], not above 0.03 µg/mL; in data set [2] it was 4 µg/mL (≈ 9.04 µM); in data set [12], not above 0.03 µg/mL; in [14], not above 0.03 µg/mL. In addition, the MIC in [4] was 1 µg/mL (≈ 2.26 µM); in [15], not above 0.03 µg/mL; in [16], not above 0.03 µg/mL; in [5] it was 0.008 µg/mL (≈ 0.0181 µM); in data set [6], 1 µg/mL (≈ 2.26 µM); in data set [7], 8 µg/mL (≈ 18.1 µM). The MIC is 0.593 µg/mL (≈ 1.34 µM) in data set [17]; not above 0.03 µg/mL in [18]; less than 1 µg/mL in [20]; not above 0.03 µg/mL in data set [21]; 8 µg/mL (≈ 18.1 µM) in data set [8]. In addition, in data set [9] (vs DS2969 and vancomycin), the “Activity against Clostridium difficile compared with controls” value was “stronger than those of DS2969 and the positive control drug vancomycin”. Also, in [10] (50 mg/kg, 1 h after modeling, observed 14 days), the “In vivo antibacterial activity (survival of mice)” value is “significant in vivo antibacterial activity and shows better antibacterial activity than DS2969”. The same molecule came in with a median effective dose (ED50) in data set [10] of 5 mg/kg. For the same molecule, the figures for the “Survival rate on day 14” value in [13] (95 mg/kg by a tail vein), in data set [13] (200 mg/kg intraperitoneally) and in [13] (800 mg/kg by intragastric administration) were 60%, 100% and 75%, respectively. In data set [19] (in vivo, read-out: F (bioavailability)), the bioavailability came out at 86%. In addition, the half-life was 9.2 h in data set [19] (in vivo) and 9.21 h in data set [19] (plasma). This molecule came in with an AUC(0-inf) in data set [19] (plasma) of 933 µg·h/mL. The molecule also came in with a Cmax in data set [19] (plasma) of 49400 ng/mL. In data set [19] (plasma), the Tmax was found to be 1 h. For the same molecule, the AUC(0-t) in data set [19] (plasma, read-out: AUC (0-48)) is 916 µg·h/mL. The MRT last in data set [19] (plasma, read-out: MRT (0-48)) was determined as 16.1 h. The MRT inf in data set [19] (plasma, read-out: MRT (0-∞)) worked out at 16.9 h.
Take `CCc1[nH]c(C(=O)N[C@@H]2CCN(c3nnc(C(C)(C)O)s3)C[C@@H]2OC)nc1Cl` [DS2969, reference compound]: the MIC is 0.5 µg/mL (≈ 1.17 µM) in data set [9]; more than 64 µg/mL in [1]; 0.5 µg/mL (≈ 1.17 µM) in data set [11]; more than 64 µg/mL in data set [2]; 0.5 µg/mL (≈ 1.17 µM) in data set [12]; 0.5 µg/mL (≈ 1.17 µM) in [14]. Moreover, the MIC in data set [4] is 32 µg/mL (≈ 74.6 µM); in [15], 0.5 µg/mL (≈ 1.17 µM); in data set [16] (37° C.), 0.5 µg/mL (≈ 1.17 µM); in data set [5] it was 0.5 µg/mL (≈ 1.17 µM); in [6], 32 µg/mL (≈ 74.6 µM); in data set [7], more than 64 µg/mL. Moreover, the MIC in data set [17] was 0.654 µg/mL (≈ 1.52 µM); in data set [18], 0.5 µg/mL (≈ 1.17 µM); in data set [20], 16 µg/mL (≈ 37.3 µM); in [21], 0.5 µg/mL (≈ 1.17 µM); in [8], more than 64 µg/mL. In data set [10], this molecule registered an ED50 of more than 10 mg/kg. Moreover, the “MIC Staphylococcus aureus ATCC 29213 (background)” value in data set [22] is 0.2 µg/mL (≈ 0.466 µM). Moreover, the “MIC Escherichia coli ATCC25922 (background)” value in data set [3] is 32 µg/mL (≈ 74.6 µM).
